From ChEMBL document CHEMBL3792297, “Studies on phenothiazines: New microtubule-interacting compounds with phenothiazine A-ring as potent antineoplastic agents” (Bioorg Med Chem, 2016)

Legend:
[1] = Growth inhibition of human SKOV3 cells after 48 hrs by SRB assay; format: functional; conditions: SK-OV-3, 48 h
[2] = Growth inhibition of human OVCAR4 cells at 10 uM after 48 hrs by SRB assay relative to control; format: functional; conditions: OVCAR-4, 48 h, read-out: GI
MDA-MB-468 = assay: Growth inhibition of human MDA-MB-468 cells after 48 hrs by SRB assay; format: functional; conditions: MDA-MB-468, 48 h
[3] = Growth inhibition of human OVCAR5 cells after 48 hrs by SRB assay; format: functional; conditions: OVCAR-5, 48 h
KM12 = assay: Growth inhibition of human KM12 cells at 10 uM after 48 hrs by SRB assay relative to control; format: functional; conditions: KM12, 48 h, read-out: GI
[4] = Growth inhibition of human MOLT4 cells at 10 uM after 48 hrs by SRB assay relative to control; format: functional; conditions: MOLT-4, 48 h, read-out: GI
Ovis aries = organism: Ovis aries; assay: Inhibition of sheep brain tubulin polymerization at 100 uM by DAPI staining-based fluorimetric method
MCF7 = assay: Growth inhibition of human MCF7 cells after 48 hrs by SRB assay; format: functional; conditions: MCF7, 48 h
[5] = Growth inhibition of human HCC2998 cells after 48 hrs by SRB assay; format: functional; conditions: HCC 2998, 48 h
[6] = Growth inhibition of human SNB75 cells at 10 uM after 48 hrs by SRB assay relative to control; format: functional; conditions: SNB-75, 48 h, read-out: GI
CCRF-CEM [7] = assay: Growth inhibition of human CCRF-CEM cells at 10 uM after 48 hrs by SRB assay relative to control; format: functional; conditions: read-out: GI
[8] = Growth inhibition of human UACC257 cells at 10 uM after 48 hrs by SRB assay relative to control; format: functional; conditions: UACC-257, 48 h, read-out: GI
A498 = assay: Growth inhibition of human A498 cells at 10 uM after 48 hrs by SRB assay relative to control; format: functional; conditions: A498, 48 h, read-out: GI
[9] = Growth inhibition of human HOP92 cells after 48 hrs by SRB assay; format: functional; conditions: HOP-92, 48 h
[10] = Growth inhibition of human MOLT4 cells after 48 hrs by SRB assay; format: functional; conditions: MOLT-4, 48 h
[11] = Growth inhibition of human SNB75 cells after 48 hrs by SRB assay; format: functional; conditions: SNB-75, 48 h
[12] = Growth inhibition of human NCI-ADR-RES cells at 10 uM after 48 hrs by SRB assay relative to control; format: functional; conditions: read-out: GI
[13] = Growth inhibition of human LOXIMVI cells after 48 hrs by SRB assay; format: functional; conditions: LOX IMVI
NCI-H460 = assay: Growth inhibition of human NCI-H460 cells after 48 hrs by SRB assay; format: functional; conditions: NCI-H460, 48 h
CCRF-CEM [14] = assay: Growth inhibition of human CCRF-CEM cells after 48 hrs by SRB assay; format: functional
[15] = Growth inhibition of human COLO205 cells after 48 hrs by SRB assay; format: functional; conditions: COLO 205, 48 h
[16] = Growth inhibition of human SF295 cells after 48 hrs by SRB assay; format: functional; conditions: SF-295, 48 h
[17] = Growth inhibition of human SW620 cells at 10 uM after 48 hrs by SRB assay relative to control; format: functional; conditions: SW-620, 48 h, read-out: GI
SN12C [18] = assay: Growth inhibition of human SN12C cells after 48 hrs by SRB assay; format: functional
U-251 = assay: Growth inhibition of human U251 cells after 48 hrs by SRB assay; format: functional; conditions: U-251, 48 h
SK-MEL-5 [19] = assay: Growth inhibition of human SK-MEL-5 cells after 48 hrs by SRB assay; format: functional; conditions: SK-MEL-5, 48 h
[20] = Growth inhibition of human RXF393 cells at 10 uM after 48 hrs by SRB assay relative to control; format: functional; conditions: RXF 393, 48 h, read-out: GI
[21] = Growth inhibition of human HL-60(TB) cells at 10 uM after 48 hrs by SRB assay relative to control; format: functional; conditions: HL-60, 48 h, read-out: GI
SK-MEL-28 = assay: Growth inhibition of human SK-MEL-28 cells after 48 hrs by SRB assay; format: functional; conditions: SK-MEL-28, 48 h
SN12C [22] = assay: Growth inhibition of human SN12C cells at 10 uM after 48 hrs by SRB assay relative to control; format: functional; conditions: read-out: GI
[23] = Growth inhibition of human HCT15 cells at 10 uM after 48 hrs by SRB assay relative to control; format: functional; conditions: HCT-15, 48 h, read-out: GI
786-0 = assay: Growth inhibition of human 786-0 cells after 48 hrs by SRB assay; format: functional; conditions: 786-0, 48 h
MDA-MB-231 = assay: Growth inhibition of human MDA-MB-231 cells at 10 uM after 48 hrs by SRB assay relative to control; format: functional; conditions: MDA-MB-231, 48 h, read-out: GI
Malme-3M = assay: Growth inhibition of human MALME-3M cells at 10 uM after 48 hrs by SRB assay relative to control; format: functional; conditions: read-out: GI
[24] = Growth inhibition of human SF539 cells at 10 uM after 48 hrs by SRB assay relative to control; format: functional; conditions: SF-539, 48 h, read-out: GI
[25] = Growth inhibition of human OVCAR3 cells after 48 hrs by SRB assay; format: functional; conditions: OVCAR-3, 48 h
HT-29 = assay: Growth inhibition of human HT-29 cells at 10 uM after 48 hrs by SRB assay relative to control; format: functional; conditions: HT-29, 48 h, read-out: GI
SK-MEL-5 [26] = assay: Growth inhibition of human SK-MEL-5 cells at 10 uM after 48 hrs by SRB assay relative to control; format: functional; conditions: SK-MEL-5, 48 h, read-out: GI
K562 = assay: Growth inhibition of human K562 cells after 48 hrs by SRB assay; format: functional; conditions: K562, 48 h
[27] = Growth inhibition of human UACC62 cells after 48 hrs by SRB assay; format: functional; conditions: UACC-62, 48 h
[28] = Growth inhibition of human Hs 578T cells at 10 uM after 48 hrs by SRB assay relative to control; format: functional; conditions: read-out: GI
[29] = Growth inhibition of human HCT116 cells after 48 hrs by SRB assay; format: functional; conditions: HCT-116, 48 h
[30] = Growth inhibition of human SF268 cells at 10 uM after 48 hrs by SRB assay relative to control; format: functional; conditions: SF-268, 48 h, read-out: GI
[31] = Growth inhibition of human TK10 cells at 10 uM after 48 hrs by SRB assay relative to control; format: functional; conditions: TK-10, 48 h, read-out: GI
SR = assay: Growth inhibition of human SR cells at 10 uM after 48 hrs by SRB assay relative to control; format: functional; conditions: read-out: GI
[32] = Growth inhibition of human RPMI8226 cells after 48 hrs by SRB assay; format: functional; conditions: RPMI-8226, 48 h

What does the source list for COc1ccc(C(=O)N2c3ccccc3Sc3ccccc32)c(F)c1?
GI50 [1]: 4130 nM; inhibition of growth at 10 µM [2]: 51%; GI50 (MDA-MB-468): 413 nM; GI50 [3]: 3660 nM; inhibition of growth at 10 µM (KM12): 77%; inhibition of growth at 10 µM [4]: 73%; inhibition (Ovis aries): 75%; GI50 (MCF7): 405 nM; GI50 [5]: 2380 nM; inhibition of growth at 10 µM [6]: 100%; inhibition of growth at 10 µM (CCRF-CEM [7]): 83%; inhibition of growth at 10 µM [8]: 33%; inhibition of growth at 10 µM (A498): 98%; GI50 [9]: 238 nM; GI50 [10]: 715 nM; GI50 [11]: 288 nM; inhibition of growth at 10 µM [12]: 98%; GI50 [13]: 727 nM; GI50 (NCI-H460): 485 nM; GI50 (CCRF-CEM [14]): 522 nM; GI50 [15]: 445 nM; GI50 [16]: 395 nM; inhibition of growth at 10 µM [17]: 85%; GI50 (SN12C [18]): 1940 nM; GI50 (U-251): 615 nM; GI50 (SK-MEL-5 [19]): 759 nM; inhibition of growth at 10 µM [20]: 100%; inhibition of growth at 10 µM [21]: 85%; GI50 (SK-MEL-28): 1640 nM; inhibition of growth at 10 µM (SN12C [22]): 39%; inhibition of growth at 10 µM [23]: 73%; GI50 (786-0): 675 nM; inhibition of growth at 10 µM (MDA-MB-231): 47%; inhibition of growth at 10 µM (Malme-3M): 53%; inhibition of growth at 10 µM [24]: 100%; GI50 [25]: 418 nM; inhibition of growth at 10 µM (HT-29): 95%; inhibition of growth at 10 µM (SK-MEL-5 [26]): 84%; GI50 (K562): 442 nM; GI50 [27]: 382 nM; inhibition of growth at 10 µM [28]: 84%; GI50 [29]: 393 nM; inhibition of growth at 10 µM [30]: 47%; inhibition of growth at 10 µM [31]: 55%; inhibition of growth at 10 µM (SR): 77%; GI50 [32]: 921 nM

With O=C(c1ccc2c(c1)Sc1ccccc1N2)c1c[nH]c2ccccc12 as the compound, how does the GI50 [1] read?
Its GI50 is 380 nM.

What about the inhibition of growth at 10 µM [2] of the same compound?
The inhibition of growth at 10 µM was 39%.

What about the GI50 (MDA-MB-468) of the same compound?
Its GI50 is 301 nM.

What about the GI50 [3] of the same compound?
The GI50 was 565 nM.

And the inhibition of growth at 10 µM (KM12)?
The inhibition of growth at 10 µM was 87%.

What about the inhibition of growth at 10 µM [4] of the same compound?
Its inhibition of growth at 10 µM is 73%.

What about the inhibition (Ovis aries) of the same compound?
Its inhibition is 66%.

And the GI50 (MCF7)?
Its GI50 is 312 nM.

What about the GI50 [5] of the same compound?
The GI50 was 876 nM.

What about the inhibition of growth at 10 µM [6] of the same compound?
Its inhibition of growth at 10 µM is 100%.

What about the inhibition of growth at 10 µM (CCRF-CEM [7]) of the same compound?
Its inhibition of growth at 10 µM is 81%.

And the inhibition of growth at 10 µM [8]?
Its inhibition of growth at 10 µM is 43%.

What about the inhibition of growth at 10 µM (A498) of the same compound?
Its inhibition of growth at 10 µM is 92%.

And the GI50 [9]?
The GI50 was 585 nM.

And the GI50 [10]?
The GI50 was 642 nM.

What about the GI50 [11] of the same compound?
The GI50 was 249 nM.

What about the inhibition of growth at 10 µM [12] of the same compound?
Its inhibition of growth at 10 µM is 100%.

And the GI50 (NCI-H460)?
The GI50 was 347 nM.

What about the GI50 (CCRF-CEM [14]) of the same compound?
Its GI50 is 328 nM.

And the GI50 [15]?
The GI50 was 285 nM.

What about the GI50 [16] of the same compound?
Its GI50 is 314 nM.

What about the inhibition of growth at 10 µM [17] of the same compound?
Its inhibition of growth at 10 µM is 71%.

And the GI50 (SN12C [18])?
The GI50 was 708 nM.

What about the GI50 (U-251) of the same compound?
The GI50 was 413 nM.

And the GI50 (SK-MEL-5 [19])?
The GI50 was 452 nM.

And the inhibition of growth at 10 µM [20]?
The inhibition of growth at 10 µM was 91%.

And the inhibition of growth at 10 µM [21]?
Its inhibition of growth at 10 µM is 85%.

And the GI50 (SK-MEL-28)?
The GI50 was 630 nM.

What about the inhibition of growth at 10 µM (SN12C [22]) of the same compound?
The inhibition of growth at 10 µM was 57%.

What about the inhibition of growth at 10 µM [23] of the same compound?
The inhibition of growth at 10 µM was 68%.

And the GI50 (786-0)?
The GI50 was 672 nM.

What about the inhibition of growth at 10 µM (MDA-MB-231) of the same compound?
The inhibition of growth at 10 µM was 54%.

What about the inhibition of growth at 10 µM (Malme-3M) of the same compound?
Its inhibition of growth at 10 µM is 49%.

What about the inhibition of growth at 10 µM [24] of the same compound?
The inhibition of growth at 10 µM was 100%.

And the GI50 [25]?
Its GI50 is 360 nM.

What about the inhibition of growth at 10 µM (HT-29) of the same compound?
The inhibition of growth at 10 µM was 99%.

And the inhibition of growth at 10 µM (SK-MEL-5 [26])?
The inhibition of growth at 10 µM was 89%.

What about the GI50 (K562) of the same compound?
Its GI50 is 310 nM.

What about the GI50 [27] of the same compound?
The GI50 was 356 nM.

What about the inhibition of growth at 10 µM [28] of the same compound?
The inhibition of growth at 10 µM was 100%.

And the GI50 [29]?
The GI50 was 378 nM.

What about the inhibition of growth at 10 µM [30] of the same compound?
The inhibition of growth at 10 µM was 45%.

What about the inhibition of growth at 10 µM [31] of the same compound?
The inhibition of growth at 10 µM was 63%.

And the inhibition of growth at 10 µM (SR)?
Its inhibition of growth at 10 µM is 76%.

And the GI50 [32]?
Its GI50 is 428 nM.
